In ChEMBL document CHEMBL1201862, “PubChem BioAssay data set” (2004):
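In this assay, cells in 96-well plates receive the compound at five concentrations for 48 hours. Endpoints are linearly interpolated between the surrounding concentrations. At the GI50, growth is halved.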 The source made the active and inactive calls. No stated cut-off is given here; in the data, active = GI50 up to about 1.1 µM and inactive = higher.

Legend:
Experiment in all cases: DTP human tumour cell line panel, 48 h
KM12 = system: KM12
SK-MEL-28 = system: SK-MEL-28
HL-60 = system: HL-60
A549 = system: A549
OVCAR-5 = system: OVCAR-5
T47D = system: T47D
LOX IMVI = system: LOX IMVI
HOP-62 = system: HOP-62
NCI-H522 = system: NCI-H522
M14 = system: M14
IGROV-1 = system: IGROV-1
CCRF-CEM = system: CCRF-CEM
SF-268 = system: SF-268
SF-295 = system: SF-295
NCI/ADR-RES = system: NCI/ADR-RES
SNB-19 = system: SNB-19
RXF 393 = system: RXF 393
SR = system: SR
UACC-257 = system: UACC-257
SW-620 = system: SW-620

Compound	GI50 (KM12)	GI50 (SK-MEL-28)	GI50 (HL-60)	GI50 (A549)	GI50 (OVCAR-5)	GI50 (T47D)	GI50 (LOX IMVI)	GI50 (HOP-62)	GI50 (NCI-H522)	GI50 (M14)	GI50 (IGROV-1)	GI50 (CCRF-CEM)	GI50 (SF-268)	GI50 (SF-295)	GI50 (NCI/ADR-RES)	GI50 (SNB-19)	GI50 (RXF 393)	GI50 (SR)	GI50 (UACC-257)	GI50 (SW-620)
O=C(CNC(=O)c1ccccc1)Oc1c(Cl)c(Cl)c(Cl)c(Cl)c1Cl	22.4 µM (inactive)	39 µM (inactive)	24.6 µM (inactive)	29 µM (inactive)	47.2 µM (inactive)	42.6 µM (inactive)	35 µM (inactive)	38.3 µM (inactive)	29.6 µM (inactive)	64.9 µM (inactive)	27.8 µM (inactive)	38.7 µM (inactive)	40.6 µM (inactive)	33.2 µM (inactive)	31 µM (inactive)	44.9 µM (inactive)	39.4 µM (inactive)	32.4 µM (inactive)	19.6 µM (inactive)	21.6 µM (inactive)
COC(=O)[C@@H]1CN(C(=O)CCc2ccccc2)C(=O)N1C(=O)OCc1ccccc1	> 100 µM (inactive)	> 100 µM (inactive)	> 100 µM (inactive)	> 100 µM (inactive)	> 100 µM (inactive)	38.5 µM (inactive)	> 100 µM (inactive)	> 100 µM (inactive)	> 100 µM (inactive)	> 100 µM (inactive)	> 100 µM (inactive)	> 100 µM (inactive)	40 µM (inactive)	> 100 µM (inactive)	> 100 µM (inactive)	> 100 µM (inactive)	> 100 µM (inactive)	> 100 µM (inactive)	> 100 µM (inactive)	> 100 µM (inactive)
O=NN1CCCS1(=O)=O	> 100 µM (inactive)	> 100 µM (inactive)	> 100 µM (inactive)	> 100 µM (inactive)	> 100 µM (inactive)	> 100 µM (inactive)	> 100 µM (inactive)	> 100 µM (inactive)	–	> 100 µM (inactive)	> 100 µM (inactive)	> 100 µM (inactive)	> 100 µM (inactive)	> 100 µM (inactive)	> 100 µM (inactive)	> 100 µM (inactive)	> 100 µM (inactive)	> 100 µM (inactive)	> 100 µM (inactive)	> 100 µM (inactive)
Cc1nnc(N)nc1C/C=C/C(Sc1ccc(Cl)cc1)c1ccccc1 (stereo not given)	3.56 µM (inactive)	6.78 µM (inactive)	2.87 µM (inactive)	2.82 µM (inactive)	4.89 µM (inactive)	11.2 µM (inactive)	2.26 µM (inactive)	5.28 µM (inactive)	1.81 µM (inactive)	4.73 µM (inactive)	1.82 µM (inactive)	0.235 µM (active)	2.4 µM (inactive)	1.91 µM (inactive)	4.69 µM (inactive)	3.05 µM (inactive)	4.45 µM (inactive)	3.35 µM (inactive)	4.22 µM (inactive)	4.2 µM (inactive)
CC(=O)OC(OC(C)=O)c1ccc2ccc3cccc4ccc1c2c34	9.77 µM (inactive)	–	9.38 µM (inactive)	> 100 µM (inactive)	20 µM (inactive)	22.9 µM (inactive)	16 µM (inactive)	–	–	24.8 µM (inactive)	21.7 µM (inactive)	42.6 µM (inactive)	28 µM (inactive)	18.7 µM (inactive)	31.3 µM (inactive)	19.5 µM (inactive)	11.3 µM (inactive)	21 µM (inactive)	17.1 µM (inactive)	–
CSc1nc(C)c(CCOC(C)=O)c(Cl)n1	> 100 µM (inactive)	> 100 µM (inactive)	> 100 µM (inactive)	> 100 µM (inactive)	> 100 µM (inactive)	> 100 µM (inactive)	> 100 µM (inactive)	> 100 µM (inactive)	> 100 µM (inactive)	> 100 µM (inactive)	> 100 µM (inactive)	> 100 µM (inactive)	> 100 µM (inactive)	> 100 µM (inactive)	> 100 µM (inactive)	> 100 µM (inactive)	> 100 µM (inactive)	> 100 µM (inactive)	> 100 µM (inactive)	> 100 µM (inactive)
CCOC(=O)C1C(=O)CC(O)(c2ccccc2)C(C(=O)OCC)C1c1ccc(OC)cc1 (stereo not given)	6.31 µM (inactive)	28.8 µM (inactive)	10.5 µM (inactive)	47 µM (inactive)	50.6 µM (inactive)	42.2 µM (inactive)	18.7 µM (inactive)	25.5 µM (inactive)	5.69 µM (inactive)	10.4 µM (inactive)	20 µM (inactive)	18.2 µM (inactive)	30.1 µM (inactive)	3.24 µM (inactive)	19.6 µM (inactive)	22.5 µM (inactive)	13.6 µM (inactive)	4.23 µM (inactive)	58.3 µM (inactive)	12.2 µM (inactive)
N#Cc1nn(C2OC(COC(=O)c3ccccc3)C(OC(=O)c3ccccc3)C2OC(=O)c2ccccc2)c2nc[nH]c(=O)c12 (stereo not given)	–	44.1 µM (inactive)	34 µM (inactive)	39.6 µM (inactive)	> 100 µM (inactive)	46.2 µM (inactive)	–	90.2 µM (inactive)	36.9 µM (inactive)	46.1 µM (inactive)	42.7 µM (inactive)	18.5 µM (inactive)	43.1 µM (inactive)	46.5 µM (inactive)	66.4 µM (inactive)	72.8 µM (inactive)	36.4 µM (inactive)	30.9 µM (inactive)	> 100 µM (inactive)	63.1 µM (inactive)
Cc1ccc(S(=O)(=O)N/N=C/C(=C/c2ccc(Cl)cc2)CC(/C=N/NS(=O)(=O)c2ccc(C)cc2)=C\c2ccc(Cl)cc2)cc1	7.87 µM (inactive)	5.52 µM (inactive)	3.59 µM (inactive)	17.1 µM (inactive)	15.3 µM (inactive)	4.78 µM (inactive)	2.1 µM (inactive)	19.5 µM (inactive)	4.03 µM (inactive)	10.8 µM (inactive)	5.81 µM (inactive)	2.98 µM (inactive)	5.06 µM (inactive)	14 µM (inactive)	7.36 µM (inactive)	8.77 µM (inactive)	3.56 µM (inactive)	2.61 µM (inactive)	11.4 µM (inactive)	4.47 µM (inactive)
CC(=O)N1NC(c2ccccc2)=CC(=O)/C1=C/C(=O)c1ccccc1	75.5 µM (inactive)	> 100 µM (inactive)	35.2 µM (inactive)	53.1 µM (inactive)	> 100 µM (inactive)	39.3 µM (inactive)	40.9 µM (inactive)	88.1 µM (inactive)	15.9 µM (inactive)	82.2 µM (inactive)	34.3 µM (inactive)	29.8 µM (inactive)	29.2 µM (inactive)	58.2 µM (inactive)	50.4 µM (inactive)	58.7 µM (inactive)	24.2 µM (inactive)	20.7 µM (inactive)	> 100 µM (inactive)	–
O=C1/C(=C/c2ccc(Cl)cc2)Oc2ccccc21	32.4 µM (inactive)	> 100 µM (inactive)	> 100 µM (inactive)	18.7 µM (inactive)	–	27.4 µM (inactive)	–	22.3 µM (inactive)	11.7 µM (inactive)	43.8 µM (inactive)	> 10 µM (inactive)	> 100 µM (inactive)	51.6 µM (inactive)	56.5 µM (inactive)	> 10 µM (inactive)	37 µM (inactive)	21.4 µM (inactive)	51.2 µM (inactive)	64.7 µM (inactive)	> 100 µM (inactive)
